Experimental findings from ChEMBL document CHEMBL1909553, “Design, synthesis and biological evaluation of substituted 11H-benzo[a]carbazole-5-carboxamides as novel antitumor agents” (Eur J Med Chem, 2011) are described below.

The subject of series [1] is HCT-116. The experiment in a line: Antitumor activity against human HCT116 cells transplanted in nude mouse assessed as decrease in tumor volume at 15 mg/kg, iv administered three times per week for three weeks measured on day 21 (reference value: 1245 +/- 192 mm'3). The class given is functional.
Series [2] has as its system HCT-116. Description: Antitumor activity against human HCT116 cells transplanted in nude mouse assessed as tumor volume at 15 mg/kg, iv administered three times per week for three weeks relative to control. The class given is functional.
The next series relates to Mus musculus. Description: Toxicity in nude mouse xenografted with human HCT116 cells assessed as body weight change at 15 mg/kg, iv administered three times a week for 3 weeks (reference value: 19.4 g). The series is classed as organism-based, HCT-116. Details: dose 15 mg/kg, route intravenous. The conditions noted are these: in vivo, 504 h.
The next series has as its system A549. The experiment in a line: Growth inhibition of human A549 cells measured after 72 hrs by SRB assay. The class given is functional, cell-based. Particulars: A549, 72 h. (In general: In SRB staining, fixed cells bind dye roughly in proportion to their protein.)
For series [3], the system named is HCT-116. Description: Growth inhibition of human HCT116 cells measured after 72 hrs by SRB assay. The conditions noted are these: HCT-116, 72 h. The class given is functional, cell-based.
A further series concerns Nucleic Acid. Description: Binding affinity to linearized Escherichia coli pBR322 DNA assessed as inhibition of T4-DNA ligase-mediated circularization at 100 uM after 30 mins by agarose gel electrophoresis. The class given is nucleic-acid assay.
Series [4] concerns HL-60. The experiment in a line: Cell cycle arrest in human HL60 cells assessed as accumulation at G2/M phase at 8 uM after 24 hrs by propidium iodide staining-based flow cytometric analysis relative to control. The series is classed as functional. For orientation: A flow cytometer gives signals particle by particle.
Series [5] concerns HL-60. Description: Cell cycle arrest in human HL60 cells assessed as accumulation at G2/M phase at 2 uM after 24 hrs by propidium iodide staining-based flow cytometric analysis relative to control. The series is classed as functional.

Calls of active or inactive are those of the source. The calls are words filed in the database; no cut-off is given here.

The T/C is the result in the treated group divided by that in the control group, in per cent. What is called IC50 is the concentration that gives 50% inhibition.

As to `CN(C)CCCNC(=O)c1cc2c3ccccc3[nH]c2c2cc(Br)ccc12.O=C(O)CC(O)(CC(=O)O)C(=O)O`, the Activity in the series with HCT-116 [1] was 676 mm3; with Mus musculus, 16.3 g. The T/C in the series with HCT-116 [2] is reported as 58.97%.
`CNCCNC(=O)c1cc2c3ccccc3[nH]c2c2cc(Br)ccc12`: the IC50 in the series with A549 stood at 17.5 µM; in the series with HCT-116 [3] it was 16.2 µM.
`CN(C)CCNC(=O)c1cc2c3ccccc3[nH]c2c2cc(Br)ccc12`: the IC50 is 12.1 µM in the series with A549 and 8.8 µM in the series with HCT-116 [3]. In the series with Nucleic Acid, the inhibition result was “Active”. Also, the Activity in the series on HL-60 [4] came to 48.13%.
In the case of `CN(C)CCNC(=O)c1cc2c3ccccc3[nH]c2c2ccccc12`, the IC50 with A549 and in the series on HCT-116 [3] was 23.8 µM throughout.
For `O=C(NCCN1CCOCC1)c1cc2c3ccccc3[nH]c2c2cc(Br)ccc12`, the IC50 with A549 is 9.4 µM; in the series on HCT-116 [3] it was 64.9 µM.
For `O=C(NCCN1CCCCC1)c1cc2c3ccccc3[nH]c2c2cc(Br)ccc12` the same measures were 19.5 µM and 17 µM.
For `CN(C)CCNC(=O)c1cc2c3ccccc3[nH]c2c2cc(N)ccc12` the same measures were 38.4 µM and 36.2 µM.
As to `CN(C)CCCNC(=O)c1cc2c3ccccc3[nH]c2c2cc(Br)ccc12` [listing 1 of 2 here], the IC50 is 8.2 µM in the series on A549 and 9.5 µM with HCT-116 [3]. The Activity with HL-60 [5] was determined as 61.3%.
For `O=C(NCCN1CCNCC1)c1cc2c3ccccc3[nH]c2c2cc(Br)ccc12`, the IC50 in the series on A549 amounted to 68.4 µM; in the series on HCT-116 [3], 70.3 µM.
In the case of `CN(C)CCN1C(=O)c2cccc3c2c(cc2c4ccccc4sc32)C1=O`, the IC50 with A549 was found to be 0.4 µM; in the series on HCT-116 [3], 2.2 µM. Also, the inhibition entry in the series with Nucleic Acid is “Active”. The Activity with HL-60 [5] turned out to be 52.48%.
For `CN(C)CCN1C(=O)c2cccc3cc(N)cc(c23)C1=O` [AMONAFIDE], the IC50 was 8.1 µM with A549 and 15.3 µM in the series on HCT-116 [3].
Regarding `CN(C)CCN1C(=O)c2cccc3cc(N)cc(c23)C1=O.O=C(O)CC(O)(CC(=O)O)C(=O)O` [AMONAFIDE CITRATE], the Activity in the series with HCT-116 [1] is on record as 664 mm3; with Mus musculus it was 14.6 g. In addition, the T/C in the series with HCT-116 [2] was 52.74%.
`CN(C)CCNC(=O)c1cc2c3ccccc3[nH]c2c2cc(N(C)C)ccc12`: the IC50 in the series with A549 was determined as 23.1 µM; in the series with HCT-116 [3] it was 20.1 µM.
`CN(C)CCCNC(=O)c1cc2c3ccccc3[nH]c2c2cc(Br)ccc12` [listing 2 of 2 here]: in the series on Nucleic Acid, the inhibition entry is “Active”.
For `O=C(NCCNCCO)c1cc2c3ccccc3[nH]c2c2cc(Br)ccc12`, the IC50 was found to be 25.6 µM in the series with A549 and 17.5 µM in the series on HCT-116 [3].
As to `O=C(NCCO)c1cc2c3ccccc3[nH]c2c2cc(Br)ccc12`, the concentration for half-maximal inhibition (IC50) with A549 and in the series with HCT-116 [3] was > 100 µM in each case.
`O=C(NCCN1CCCC1)c1cc2c3ccccc3[nH]c2c2cc(Br)ccc12`: the results for the IC50 with A549 and in the series with HCT-116 [3] were 10.6 µM and 11 µM, respectively.
